Data from PMC8645336, “Benchmarking a highly selective USP30 inhibitor for enhancement of mitophagy and pexophagy” (Life Science Alliance, 2021).

How the values were obtained:
Experiment in all cases: biochemical
Set-up in all cases: Ubiquigent DUB profiler selectivity panel, remaining enzyme activity as % of control
Details in all cases: read-out: % of control remaining
AMSH-LP (+Zinc) = target: T1, AMSH-LP (+Zinc) (Homo sapiens, UniProt Q96FJ0)
T1 construct: gene STAMBPL1; +Zinc
T1 sequence (Q96FJ0 1-436): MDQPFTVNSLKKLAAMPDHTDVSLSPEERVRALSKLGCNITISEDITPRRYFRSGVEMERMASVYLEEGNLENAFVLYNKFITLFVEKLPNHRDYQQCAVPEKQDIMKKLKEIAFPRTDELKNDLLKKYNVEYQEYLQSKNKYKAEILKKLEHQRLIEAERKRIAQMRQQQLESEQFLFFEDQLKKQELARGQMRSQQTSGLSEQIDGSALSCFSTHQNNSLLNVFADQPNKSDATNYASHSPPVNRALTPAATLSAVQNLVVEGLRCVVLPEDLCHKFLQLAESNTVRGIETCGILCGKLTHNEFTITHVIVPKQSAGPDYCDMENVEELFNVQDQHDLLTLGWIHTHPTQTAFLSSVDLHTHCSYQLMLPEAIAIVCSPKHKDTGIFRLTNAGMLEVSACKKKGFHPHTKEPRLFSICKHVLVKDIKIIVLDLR
Outline: (§1)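 In YFP-PRKN-overexpressing hTERT-RPE1 cells, 1 h antimycin A plus oligomycin A (1 μM each) with CMPD-39, then Western blot of TOMM20 ubiquitylation. Target engagement: 2 h compound, then 10 min HA-Ub-PA at 37°C, read as USP30 shift. DUB panel (>40 enzymes) screened at 1-100 μM.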

Ataxin3L = target: T2, Ataxin3L (Homo sapiens, UniProt Q9H3M9)
T2 construct: gene ATXN3L
T2 sequence (Q9H3M9 1-355): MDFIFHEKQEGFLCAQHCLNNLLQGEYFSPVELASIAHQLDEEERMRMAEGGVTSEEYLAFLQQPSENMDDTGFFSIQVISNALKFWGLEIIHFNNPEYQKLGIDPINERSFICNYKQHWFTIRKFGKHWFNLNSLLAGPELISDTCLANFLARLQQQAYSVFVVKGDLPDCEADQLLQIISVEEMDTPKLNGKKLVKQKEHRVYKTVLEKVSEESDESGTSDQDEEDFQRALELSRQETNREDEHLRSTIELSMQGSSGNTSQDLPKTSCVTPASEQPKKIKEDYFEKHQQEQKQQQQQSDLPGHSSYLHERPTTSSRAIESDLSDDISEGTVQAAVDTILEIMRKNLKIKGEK
Outline: as §1

JOSD2 = target: T3, JOSD2 (Homo sapiens, UniProt Q8TAC2)
T3 sequence (Q8TAC2 1-188): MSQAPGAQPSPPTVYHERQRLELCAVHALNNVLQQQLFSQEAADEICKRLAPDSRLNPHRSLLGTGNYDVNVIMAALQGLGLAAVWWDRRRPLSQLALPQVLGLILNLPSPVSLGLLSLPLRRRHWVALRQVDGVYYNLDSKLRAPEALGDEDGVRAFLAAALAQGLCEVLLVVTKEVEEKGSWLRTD
Outline: as §1

UCHL1 = target: T4, UCHL1 (Homo sapiens, UniProt P09936)
T4 sequence (P09936 1-223): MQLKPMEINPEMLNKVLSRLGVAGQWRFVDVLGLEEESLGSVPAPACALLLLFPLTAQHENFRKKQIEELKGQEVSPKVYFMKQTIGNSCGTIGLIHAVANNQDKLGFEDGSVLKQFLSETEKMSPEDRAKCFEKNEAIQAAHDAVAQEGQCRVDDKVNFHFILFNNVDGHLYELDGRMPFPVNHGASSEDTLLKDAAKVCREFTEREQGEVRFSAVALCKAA
Outline: as §1

## CC(C)(C)NS(=O)(=O)c1ccc(NC(=O)[C@H](Cc2ccccc2)NC(=O)c2ccc(F)cc2)cc1 [compound 39, CMPD-39]
AMSH-LP (+Zinc)
  remaining activity at 1 µM: 106%
  remaining activity at 10 µM: 101%
  remaining activity at 100 µM: 97.8%
Ataxin3L
  remaining activity at 1 µM: 103%
  remaining activity at 10 µM: 101%
  remaining activity at 100 µM: 102%
JOSD2
  remaining activity at 1 µM: 105%
  remaining activity at 10 µM: 90.8%
  remaining activity at 100 µM: 94.3%
UCHL1
  remaining activity at 1 µM: 103%
  remaining activity at 10 µM: 98.5%
  remaining activity at 100 µM: 96.3%
